Measurements as given in patent US20170056381A1, “PYRIDOXAMINE FOR THE TREATMENT OF SICKLE CELL DISEASE, THALASSEMIA AND RELATED BLOOD DISEASES” (NANOMETICS LLC, priority 2014, published 2017).

Key:
Format in all cases: in vivo, mouse
NY1DD mice = test: Hypoxia/reoxygenation in NY1DD mice, intravital microscopy of cremaster venules
Procedure: NY1DD mice (2×n=6) were exposed to hypoxia for 16 h (gas mixture=10% O2, 0.5% CO2 and balance N2). One group of NY1 DD was then be given an intraperitoneal (i.p.) dose of pyridoxamine (400 mg/kg), dissolved in phosphate buffered saline (PBS), prior to 3 h reoxygenation in ambient conditions. The second group of NY1 DD mice was put through the same hypoxia/reoxygenation process and given vehicle (PBS) as a negative control. Healthy C57 BL/6J mice were used as healthy controls and were not exposed to hypoxia/reoxygenation stress. At the end of the reoxygenation period, the cremaster muscle was excised for intravital microscopy analysis. Intravital microscopy: Mice were anesthetized i.p. with 10% urethane and 2% α-chloralose in saline (6 ml/kg). The animals were tracheotomized and the left carotid artery cannulated to monitor systemic arterial pressure. The open cremaster muscle was prepared according to the method of Baez. The surface of the open cremaster muscle was suffused with a bicarbonate Ringer's solution of the following millimolar composition: NaCl 135.0, KCl 5.0, NaHCO3 27.0, MgCl2 0.64 and glucose 11.6. pH was adjusted to 7.35-7.4 by continuous bubbling with […]. The osmolarity of the solution, as measured by a Microosmette (Precision Systems, Inc., Sudsbury, MA) was 320 mOsm which is similar to that reported for the mouse plasma. The cremaster muscle preparation was allowed to stabilize for 30 min before the initiation of the experiment. The temperature of the suffusion solution (flow rate, 5-6 ml/min) bathing the cremaster was maintained at 34.5-35° C. and monitored by a telethermometer (YSI Inc., Yellowsprings, Ohio) during the entire experiment. Oxygen tension of the suffusion solution bathing the tissue was determined using a microoxygen electrode (model MI-730; Microelectrodes Inc., Bedford, N.H.). Microscopic observations were carried out using microscope (model BH-2; Olympus Corp., Lake Success, N.Y.) equipped with a television camera (5000 Series; Cohu, Inc., San Diego, Calif.) and a Sony U-matic video recorder (model V05800; Sony Corp., Teaneck, N.J.). Identification of venules and arterioles for observation was determined according to the published procedure. Vessel luminal diameter was measured on-line by image shearing using an image shearing device (model 907; Instruments for Physiology and Medicine, San Diego, Calif.). Red cell velocity (Vrbc) was measured along the vessel centerline using the dual-slit photodiode technique of Wayland and Johnson […]. The dual-slit photo detector was placed over the projected image of the vessel and on-line analysis of the optical signals was performed using a cross-correlator as described by Tompkins et al. (Model 102 BF; instruments for Physiology and Medicine). Vrbc measurements were made using a water immersion ×40 objective and ×6.3 eyepiece. The wall shear rates were calculated from the mean Vrbc (Vmean) and vessel diameter. The centerline Vrbc was converted to the mean red cell velocity across the vessel diameter using a conversion factor of 1.6 (Vrbc/Vmean=1.6) originally described by Baker and Wayland. Shear rates along the wall of microvessel of a given internal diameter (D) were calculated using the relationship: Wall shear rate=8 Vmean/D. Estimates of volumetric flow rates (Q) were made from Vmean and the vessel cross-sectional area (π D^2/4). Rolling leukocytes were defined as those leukocytes that distinctly roll along the endothelial surface. The rolling leukocytes were easily distinguished because of their lower velocity compared with that of leukocytes and red cells in the flow. Rolling leukocyte velocity (μm/s) represented the time required for a rolling leukocyte to traverse a given length of venule. An average of rolling velocities of approximately ten leukocytes per venule was determined by frame-by-frame analysis of video replay. […]

Berkeley mice [1] = test: BOLD MRI during hyperoxia challenge (tissue oxygenation, deoxyHb/oxyHb ratio) in Berkeley mice; conditions: single oral dose 400 mg/kg, gavage
Procedure: Experimental Design & Methods: Dose Efficacy Experiment: A single oral dose (gavage) of pyridoxamine (400 mg/kg) was administered to BERK mice (n=6) or C57bl WT mice (n=4) and CBF and deoxyHb levels measured (see below for Measurement Parameters) before treatment and 2 h, 24 h, 72 h, 5 days and 9 days after treatment. Measurement Parameters: Each animal was assessed for several parameters by magnetic resonance imaging (MRI) methods on a 9.4 T Agilent MRI system. The primary MRI methods included brain and muscle perfusion, water diffusivity and oxygenation. Data acquisition was by multi-shot (8) Echo Planer Imaging (msEPI) (segmented and interleaved). Perfusion data were acquired using amultislice FAIR-Quipps approach, and blood oxygenation was determined from T2w msEPI (BOLD). Inflammation was inferred from the mean diffusivity of water calculated from a Diffusion Tensor Imaging (DTI) measurement which estimates the apparent diffusion coefficient of water (ADC). Transverse relaxation (T2) will be assessed for tissue free-water content using 30 echos (TE: 1.3 ms-240 ms) using multiecho-spin echo approaches. Longitudinal relaxation (T1) is assessed using EPI-inversion recovery (T1: 0.1 s-7 s, TR 8 s). Tissue Oxygenation: Bold Oxygen Level Dependent (BOLD) measurements were made during a hyperoxia challenge. MRI begins while animals are exposed to 20% O2/80% N2 (6 min) and imaging continues while the inspired gas is switched to 100% O2, maintained for 6 minutes, then returned to normal room air levels. […] Perfusion measurements: Quantitative perfusion measurements (FAIR-Quipps) employ a volume coil for arterial labeling, and surface coil for signal measurement, and a TI of 1200 ms. […]
Data Analysis & Interpretation: All images are co-registered to a template using FSL tools (FMRIB Software library, Oxford, UK). […] Perfusion, BOLD activation ratios and metabolite ratios were calculated using MATLAB (Mathworks, Natick, Mass.). Parameter maps were calculated using a non-linear least squares in Matlab, or using the FMRIB FSL-based Diffusion Toolbox (DTIFIT). […]

Berkeley mice [2] = test: MRI perfusion (FAIR-Quipps) cerebral blood flow in Berkeley mice
Procedure: Experimental Design & Methods: Dose Efficacy Experiment: A single oral dose (gavage) of pyridoxamine (400 mg/kg) was administered to BERK mice (n=6) or C57bl WT mice (n=4) and CBF and deoxyHb levels measured (see below for Measurement Parameters) before treatment and 2 h, 24 h, 72 h, 5 days and 9 days after treatment. Measurement Parameters: Each animal was assessed for several parameters by magnetic resonance imaging (MRI) methods on a 9.4 T Agilent MRI system. The primary MRI methods included brain and muscle perfusion, water diffusivity and oxygenation. Data acquisition was by multi-shot (8) Echo Planer Imaging (msEPI) (segmented and interleaved). Perfusion data were acquired using amultislice FAIR-Quipps approach, and blood oxygenation was determined from T2w msEPI (BOLD). Inflammation was inferred from the mean diffusivity of water calculated from a Diffusion Tensor Imaging (DTI) measurement which estimates the apparent diffusion coefficient of water (ADC). Transverse relaxation (T2) will be assessed for tissue free-water content using 30 echos (TE: 1.3 ms-240 ms) using multiecho-spin echo approaches. Longitudinal relaxation (T1) is assessed using EPI-inversion recovery (T1: 0.1 s-7 s, TR 8 s). Tissue Oxygenation: Bold Oxygen Level Dependent (BOLD) measurements were made during a hyperoxia challenge. MRI begins while animals are exposed to 20% O2/80% N2 (6 min) and imaging continues while the inspired gas is switched to 100% O2, maintained for 6 minutes, then returned to normal room air levels. BOLD image signal intensity (echo-planer T2* weighted imaging) is inversely sensitive to deoxyHb levels, such that an increase in deoxyHb/oxyHb ratio causes a decrease in BOLD signal, while a decrease in this ratio causes an increase in BOLD signal intensity. Perfusion measurements: Quantitative perfusion measurements (FAIR-Quipps) employ a volume coil for arterial labeling, and surface coil for signal measurement, and a TI of 1200 ms. Water diffusion coefficient: DTI data were collected using a 7 direction assessment, from which both the mean diffusivity (DTI-MD) and fractional anisotropy (DTI-FA) were obtained. DTI-FA provides a measure of white matter integrity and DTI-MD, along with tissue T2 provides a measure of tissue inflammation.
Data Analysis & Interpretation: All images are co-registered to a template using FSL tools (FMRIB Software library, Oxford, UK). The template was constructed of an averaged high-resolution averaged T2-weighted image from 3 co-registered BERK mice, or 3 co-registered C57bl mice. Regions of interest (ROI's) were drawn from standard atlases (Paxonis) on the template, and include white matter (CC and External Caudate), gray matter (Somatosensory, Motor, Frontal, Parietal) Cortex, hippocampus, basal ganglia, cingulate, and others) and cranial muscle from the anterior region of the head. Image data was converted from native format to NIFTI format, intensity flattened, phase corrected, orientation corrected, and registered to the template. Perfusion, BOLD activation ratios and metabolite ratios were calculated using MATLAB (Mathworks, Natick, Mass.). Parameter maps were calculated using a non-linear least squares in Matlab, or using the FMRIB FSL-based Diffusion Toolbox (DTIFIT). Registration was accomplished using the FSL-FLIRT routine. […]

Berkeley mice [3] = test: Hypoxia/reoxygenation in Berkeley mice, intravital microscopy; conditions: single i.p. dose; Berkeley mice exposed to hypoxic stress
[4] = single i.p. dose 400 mg/kg, 16 h hypoxia, 3 h reoxygenation, cremaster venules

For Cc1ncc(CO)c(CN)c1O [pyridoxamine], the “change in venule diameter” value (NY1DD mice; single i.p. dose 400 mg/kg, 16 h hypoxia, 3 h reoxygenation, 400 mg/kg) was “minimal change”, the “decrease in leukocyte adhesion” value (NY1DD mice; [4]) was 84% and the “decrease in leukocyte emigration” value (NY1DD mice; [4]) was 95%. The “decrease in rolling leukocytes” value (NY1DD mice; [4]) was 24%, the “increase in red blood cell flow velocity (Vrbc)” value (NY1DD mice; [4]) was 42% and the “increase in wall shear rate” value (NY1DD mice; [4]) was 92%. For the same compound, the “hypoxia/reoxygenation induced endothelial activation” value (NY1DD mice; single i.p. dose, NY1DD mice exposed to hypoxic stress) was “ameliorated”, the “deoxygenated hemoglobin/oxygenated hemoglobin ratio in brain after treatment” value (Berkeley mice [1]; 72 h after treatment) was “significant decrease” and the “time of maximum effect on brain deoxyHb/oxyHb ratio (BOLD)” value (Berkeley mice [1]; brain) was 72 h. The “time of maximal effect on cranial muscle BOLD signal (oxyhemoglobin increase)” value (Berkeley mice [1]; cranial muscle) was 72 h, the “time of maximum effect on cerebral blood flow (CBF)” value (Berkeley mice [2]; single oral dose 400 mg/kg, gavage) was 72 h and the “effect on cerebral blood flow (CBF)” value (Berkeley mice [2]; single oral dose 400 mg/kg, gavage, versus C57 wild type) was “normalized the CBF to near wild type”. For the same compound, the “time of maximum response of brain perfusion” value (Berkeley mice [2]; single oral dose 100-400 mg/kg) was 72 h, the “effect on perfusion in the brain” value (Berkeley mice [2]; single oral dose 100-400 mg/kg, versus wild type C57BL mice) was “normalized perfusion in the brain of Berkeley mice to wild type values” and the “duration of sustained effects of treatment” value (Berkeley mice [2]; transgenic mouse models of SCD, single dose) was “up to 9 days”. For the same compound, the “hypoxia/reoxygenation induced endothelial activation” value (Berkeley mice [3]) was “ameliorated”.
